Like-named read-outs stand apart in the source and are kept apart here.
Columns and labels:
Format in all cases: cell-based
SW480 (colon cancer) = experiment: Antiproliferative activity (CCK-8 cell viability), SW480; settings: Homo sapiens, 72 h; for inhibition at 3.3 µM: Compound concentration: 3.3 μM; for inhibition at 10 µM: Compound concentration: 10 μM; for inhibition at 30 µM: Compound concentration: 30 μM
In short: (§1)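 Cells grown in DMEM (HepG2, SW480), MEM (HeLa) or F-12K (A549), each with 10% FBS, then exposed to compound at 3.3, 10 or 30 μM for 72 h at 37 °C. CCK-8 absorbance at 450 nm; viability expressed as percent of DMSO-treated cells, graded as growth inhibition bands.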

[1] = tested on: A549 (lung adenocarcinoma); experiment: Antiproliferative activity (CCK-8 cell viability), A549; settings: Homo sapiens, 72 h, read-out: Antiproliferative activity in cancerous cells, A549 (inhibition of cell growth); for inhibition at 3.3 µM: Compound concentration: 3.3 μM; for inhibition at 10 µM: Compound concentration: 10 μM; for inhibition at 30 µM: Compound concentration: 30 μM
In short: as §1

[2] = tested on: MDA-MB-231 (breast cancer); experiment: Antiproliferative activity (CCK-8 cell viability), MDA-MB-231; settings: Homo sapiens, 72 h, read-out: Antiproliferative activity in cancerous cells, MDA-MB-231 (inhibition of cell growth); for inhibition at 3.3 µM: Compound concentration: 3.3 μM; for inhibition at 10 µM: Compound concentration: 10 μM; for inhibition at 30 µM: Compound concentration: 30 μM
In short: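 MDA-MB-231 breast cancer cells, grown in DMEM with 10% FBS, were plated in 96-well plates at 2,000-5,000 cells/well. Once attached, they were exposed to compound and incubated at 37° C. for 72 h. Viability was then measured with CCK-8 (10 μL per well, 4 h at 37° C.) by absorbance at 450 nm, relative to DMSO vehicle wells.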

[3] = tested on: B16F10 (malignant melanoma); experiment: Antiproliferative activity (CCK-8 cell viability), B16F10; settings: Mus musculus, 72 h, read-out: Antiproliferative activity in cancerous cells, B16F10 (inhibition of cell growth); for inhibition at 3.3 µM: B16-F10, Compound concentration: 3.3 μM; for inhibition at 10 µM: B16-F10, Compound concentration: 10 μM; for inhibition at 30 µM: B16-F10, Compound concentration: 30 μM
In short: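 B16F10 melanoma cells grown in DMEM with 10% FBS were plated in 96-well plates at 2,000-5,000 cells/well. After attachment they were exposed to compound in medium for 72 h at 37° C. CCK-8 solution (10 μL) was then added, and after 4 h at 37° C absorbance was read at 450 nm.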

HeLa (cervical cancer) = experiment: Antiproliferative activity (CCK-8 cell viability), HeLa; settings: Homo sapiens, 72 h, read-out: Antiproliferative activity in cancerous cells, HELA (inhibition of cell growth); for inhibition at 3.3 µM: Compound concentration: 3.3 μM; for inhibition at 10 µM: Compound concentration: 10 μM; for inhibition at 30 µM: Compound concentration: 30 μM
In short: as §1

[4] = tested on: A431 (epidermoid carcinoma); experiment: Antiproliferative activity (CCK-8 cell viability), A431; settings: Homo sapiens, 72 h, read-out: Antiproliferative activity in cancerous cells, A431 (inhibition of cell growth); for inhibition at 3.3 µM: A-431, Compound concentration: 3.3 μM; for inhibition at 10 µM: A-431, Compound concentration: 10 μM; for inhibition at 30 µM: A-431, Compound concentration: 30 μM
In short: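 A431 epidermoid carcinoma cells grown in DMEM with 10% FBS were plated at 2,000-5,000 cells/well in 96-well plates. After attachment they were exposed to compound at 3.3 μM, 10 μM, or 30 μM for 72 h at 37° C. Viability was then assessed by CCK-8 against DMSO vehicle-treated wells.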

HepG2 (liver cancer) = experiment: Antiproliferative activity (CCK-8 cell viability), HepG2; settings: Homo sapiens, 72 h, read-out: Antiproliferative activity in cancerous cells, HepG2 (inhibition of cell growth); for inhibition at 3.3 µM: Compound concentration: 3.3 μM; for inhibition at 10 µM: Compound concentration: 10 μM; for inhibition at 30 µM: Compound concentration: 30 μM
In short: as §1

[5] = read-out: Antiproliferative activity in cancerous cells, SW480 (inhibition of cell growth)

Compound	inhibition at 3.3 µM (SW480 (colon cancer); [5])	inhibition at 10 µM (SW480 (colon cancer); [5])	inhibition at 30 µM (SW480 (colon cancer); [5])	inhibition at 3.3 µM [1]	inhibition at 10 µM [1]	inhibition at 30 µM [1]	inhibition at 3.3 µM [2]	inhibition at 10 µM [2]	inhibition at 30 µM [2]	inhibition at 3.3 µM [3]	inhibition at 10 µM [3]	inhibition at 30 µM [3]	inhibition at 3.3 µM (HeLa (cervical cancer))	inhibition at 10 µM (HeLa (cervical cancer))	inhibition at 30 µM (HeLa (cervical cancer))	inhibition at 3.3 µM [4]	inhibition at 10 µM [4]	inhibition at 30 µM [4]	inhibition at 3.3 µM (HepG2 (liver cancer))	inhibition at 10 µM (HepG2 (liver cancer))	further results
CC1=C(CC(=O)O)c2cc(F)ccc2/C1=C/c1ccc(Oc2ccc(Cl)cc2F)cc1 [E24, (E)-2-(1-(4-(4-Chloro-2-Fluorophenoxy)benzylidene)-5-fluoro-2-methyl-1H-inden-3-yl)acetic acid]	< 30%	≥ 50%	≥ 50%	< 30%	30 to 50%	≥ 50%	≥ 50%	≥ 50%	≥ 50%	≥ 50%	≥ 50%	≥ 50%	< 30%	≥ 50%	≥ 50%	≥ 50%	≥ 50%	≥ 50%	< 30%	≥ 50%	inhibition at 30 µM (HepG2 (liver cancer)): ≥ 50%
CC1=C(CC(=O)O)c2cc(C)ccc2/C1=C\c1ccc(COCc2ccc(F)cc2)cc1 [B110, (Z)-2-(1-(4-(((4-Fluorobenzyl)oxy)methyl)benzylidene)-2,5-dimethyl-1H-inden-3-yl)acetic acid]	< 30%	≥ 50%		30 to 50%	≥ 50%		≥ 50%	≥ 50%		≥ 50%	≥ 50%		< 30%	≥ 50%		30 to 50%	≥ 50%		< 30%	30 to 50%	
CC1=C(CC(=O)O)c2cc(F)ccc2/C1=C\c1cccc(C(=O)c2ccccc2)c1 [C304, (Z)-2-(1-(3-Benzoylbenzylidene)-5-fluoro-2-methyl-1H-inden-3-yl)acetic acid]	< 30%	≥ 50%	≥ 50%	< 30%	≥ 50%	≥ 50%	< 30%	30 to 50%	≥ 50%	< 30%	≥ 50%	≥ 50%	30 to 50%	≥ 50%	≥ 50%	< 30%	30 to 50%	≥ 50%	30 to 50%	≥ 50%	inhibition at 30 µM (HepG2 (liver cancer)): ≥ 50%
O=C(O)CC1=C(Cc2ccc(Oc3ccc(F)cc3)cc2)/C(=C/c2ccc(Oc3ccc(F)cc3)cc2)c2ccc(F)cc21 [A107, (Z)-2-(5-Fluoro-2-(4-(4-fluorophenoxy)benzyl)-1-(4-(4-fluorophenoxy)-benzylidene)-1H-inden-3-yl)acetic acid]	≥ 50%	≥ 50%		≥ 50%	≥ 50%		≥ 50%	≥ 50%		≥ 50%	≥ 50%		≥ 50%	≥ 50%		≥ 50%	≥ 50%		≥ 50%	≥ 50%	
CC1=C(CC(=O)O)c2cc(F)ccc2/C1=C\c1ccc(OCCc2ccc(F)cc2)cc1 [B31, (Z)-2-(5-Fluoro-1-(4-(4-fluorophenethoxy)benzylidene)-2-methyl-1H-inden-3-yl)acetic acid]	< 30%	< 30%		30 to 50%	30 to 50%		< 30%	≥ 50%		≥ 50%	≥ 50%		< 30%	≥ 50%		30 to 50%	≥ 50%		< 30%	≥ 50%	
CC1=C(CC(=O)O)c2cc(F)ccc2/C1=C\c1ccc(C(=O)c2ccccc2)cc1 [C307, (Z)-2-(1-(4-Benzoylbenzylidene)-5-fluoro-2-methyl-1H-inden-3-yl)acetic acid]	< 30%	≥ 50%		< 30%	≥ 50%		30 to 50%	≥ 50%		< 30%	≥ 50%		< 30%	≥ 50%		30 to 50%	≥ 50%		30 to 50%	≥ 50%	
CC1=C(CC(=O)O)c2cc(F)ccc2/C1=C/c1ccc(Oc2ccc(F)cc2Cl)cc1 [E25, (E)-2-(1-(4-(2-Chloro-4-fluorophenoxy)benzylidene)-5-fluoro-2-methyl-1H-inden-3-yl)acetic acid]	≥ 50%	≥ 50%	≥ 50%	< 30%	< 30%	≥ 50%	< 30%	< 30%	≥ 50%	30 to 50%	30 to 50%	≥ 50%	30 to 50%	≥ 50%	≥ 50%	≥ 50%	≥ 50%	≥ 50%	< 30%	≥ 50%	inhibition at 30 µM (HepG2 (liver cancer)): ≥ 50%
CC1=C(CC(=O)O)c2cc(F)ccc2/C1=C\c1ccc(Oc2cccc(Cl)c2)cc1 [C61, (Z)-2-(1-(4-(3-Chlorophenoxy)benzylidene)-5-fluoro-2-methyl-H-inden-3-yl)acetic acid]	< 30%	< 30%		30 to 50%	≥ 50%		< 30%	< 30%		< 30%	< 30%		30 to 50%	≥ 50%		≥ 50%	≥ 50%		30 to 50%	30 to 50%	inhibition at 30 µM (SW480 (colon cancer); read-out: Antiproliferative activity in cancerous cells, SW480): < 30%

Reference: patent publication US20260184663A1, “INDENE COMPOUNDS, PHARMACEUTICAL COMPOSITIONS THEREOF, AND THEIR THERAPEUTIC APPLICATIONS” (NucMito Pharmaceuticals co. Ltd., priority 2022, published 2026)
